Converted amounts (≈) assume the structure as drawn.
How the values were obtained:
[1] = Selectivity index, ratio of IC50 for human HaCaT cells to MIC for Bordetella bronchiseptica ATCC 4617; type: toxicity; conditions: read-out: Selectivity Index
[2] = tested on: A549; assay: Cytotoxicity activity against human A549 cells assessed as reduction in cell viability after 72 hrs by MTT assay; type: cell-based; conditions: A549, 72 h
[3] = Selectivity index, ratio of IC50 for human HaCaT cells to MIC for Staphylococcus aureus NCTC 4163; type: toxicity; conditions: read-out: Selectivity Index
[4] = tested on: Bacillus spizizenii; assay: Antibacterial activity against Bacillus subtilis ATCC 6633 after 18 hrs by CLSI disc diffusion method; type: functional; conditions: ATCC 6633, 18 h
[5] = Selectivity index, ratio of IC50 for human HaCaT cells to MIC for Enterococcus hirae ATCC 10541; type: toxicity; conditions: read-out: Selectivity Index
[6] = tested on: Micrococcus luteus; assay: Antibacterial activity against Micrococcus luteus ATCC 10240 after 18 hrs by CLSI disc diffusion method; type: functional; conditions: ATCC 10240, 18 h
[7] = tested on: Staphylococcus epidermidis; assay: Antibacterial activity against Staphylococcus epidermidis ATCC 35984 after 18 hrs by CLSI […] method; type: functional; conditions: ATCC 35984, 18 h
[8] = tested on: Bordetella bronchiseptica; assay: Antibacterial activity against Bordetella bronchiseptica ATCC 4617 after 18 hrs by CLSI disc diffusion method; type: functional; conditions: ATCC 4617, 18 h
[9] = tested on: Pseudomonas aeruginosa; assay: Antibacterial activity against Pseudomonas aeruginosa ATCC 27853 after 18 hrs by CLSI disc diffusion method; type: functional; conditions: ATCC 27853, 18 h
[10] = tested on: Micrococcus luteus; assay: Antibacterial activity against Micrococcus luteus ATCC 9341 after 18 hrs by CLSI disc diffusion method; type: functional; conditions: ATCC 9341, 18 h
[11] = Selectivity index, ratio of IC50 for human HaCaT cells to MIC for Proteus vulgaris NCTC 4635; type: toxicity; conditions: read-out: Selectivity Index
[12] = tested on: Proteus vulgaris; assay: Antibacterial activity against Proteus vulgaris NCTC 4635 after 18 hrs by CLSI disc diffusion method; type: functional; conditions: NCTC 4635, 18 h
[13] = tested on: Enterococcus faecalis; assay: Antibacterial activity against Enterococcus faecalis ATCC 29212 after 18 hrs by CLSI disc diffusion method; type: functional; conditions: ATCC 29212, 18 h
[14] = Selectivity index, ratio of IC50 for human HaCaT cells to MIC for Micrococcus luteus ATCC 10240; type: toxicity; conditions: read-out: Selectivity Index
[15] = tested on: Bacillus cereus; assay: Antibacterial activity against Bacillus cereus ATCC 11778 after 18 hrs by CLSI disc diffusion method; type: functional; conditions: ATCC 11778, 18 h
[16] = Selectivity index, ratio of IC50 for human HaCaT cells to MIC for Escherichia coli ATCC 10538; type: toxicity; conditions: read-out: Selectivity Index
[17] = Selectivity index, ratio of IC50 for human HaCaT cells to MIC for Bacillus subtilis ATCC 6633; type: toxicity; conditions: read-out: Selectivity Index
[18] = tested on: Staphylococcus epidermidis; assay: Antibacterial activity against Staphylococcus epidermidis ATCC 12228 after 18 hrs by CLSI disc diffusion method; type: functional; conditions: ATCC 12228, 18 h
[19] = tested on: Escherichia coli; assay: Antibacterial activity against Escherichia coli ATCC 10538 after 18 hrs by CLSI disc diffusion method; type: functional; conditions: ATCC 10538, 18 h
[20] = tested on: Pseudomonas aeruginosa; assay: Antibacterial activity against Pseudomonas aeruginosa ATCC 15442 after 18 hrs by CLSI disc diffusion method; type: functional; conditions: ATCC 15442, 18 h
[21] = tested on: Staphylococcus aureus; assay: Antibacterial activity against Staphylococcus aureus ATCC 6538 after 18 hrs by CLSI disc diffusion method; type: functional; conditions: ATCC 6538, 18 h
[22] = tested on: HaCaT; assay: Cytotoxicity activity against human HaCaT cells assessed as reduction in cell viability after 72 hrs by MTT assay; type: cell-based
[23] = tested on: Enterococcus hirae; assay: Antibacterial activity against Enterococcus hirae ATCC 10541 after 18 hrs by CLSI disc diffusion method; type: functional; conditions: ATCC 10541, 18 h
[24] = tested on: Staphylococcus aureus; assay: Antibacterial activity against Staphylococcus aureus ATCC 25923 after 18 hrs by CLSI disc diffusion method; type: functional; conditions: ATCC 25923, 18 h
[25] = tested on: Staphylococcus aureus; assay: Antibacterial activity against Staphylococcus aureus NCTC 4163 after 18 hrs by CLSI disc diffusion method; type: functional; conditions: NCTC 4163, 18 h

MIC [4] [µM] | MIC [6] [µM] | MIC [7] [µM] | MIC [8] [µM] | MIC [9] [µM] | MIC [10] [µM] | MIC [12] [µM] | MIC [13] [µM] | MIC [15] [µM] | MIC [18] [µM] | MIC [19] [µM] | MIC [20] [µM] | Structure (SMILES) | selectivity ratio [1] | IC50 [2] [µM] | selectivity ratio [3] | selectivity ratio [5] | selectivity ratio [11] | selectivity ratio [14] | selectivity ratio [16] | selectivity ratio [17] | other results
65 (≈ 16 µg/mL) | 2 (≈ 0.492 µg/mL) | 16 (≈ 3.94 µg/mL) | 130 (≈ 32 µg/mL) | 1040 (≈ 256 µg/mL) | 2 (≈ 0.492 µg/mL) | 8 (≈ 1.97 µg/mL) | 8 (≈ 1.97 µg/mL) | 65 (≈ 16 µg/mL) | 33 (≈ 8.12 µg/mL) | 16 (≈ 3.94 µg/mL) | 1040 (≈ 256 µg/mL) | Fc1ccc(-n2nnnc2Nn2cnnc2)cc1 | 0.09 | 80 | 1.29 | 2.89 | 1.47 | 1.47 | 1.47 | 1.29 | MIC [21]: 33 µM (≈ 8.12 µg/mL); IC50 [22]: 84 µM; MIC [23]: 65 µM (≈ 16 µg/mL); MIC [24]: 65 µM (≈ 16 µg/mL); MIC [25]: 65 µM (≈ 16 µg/mL)
14 (≈ 4.15 µg/mL) | 27 (≈ 8.01 µg/mL) | 14 (≈ 4.15 µg/mL) | > 865 | > 865 | 14 (≈ 4.15 µg/mL) | > 865 | 54 (≈ 16 µg/mL) | 14 (≈ 4.15 µg/mL) | 27 (≈ 8.01 µg/mL) | > 865 | > 865 | Fc1ccc(-n2nnnc2Nc2nccs2)cc1Cl | 0.07 | 60 | 0.55 | 2.22 | 0.07 | 2.22 | 0.07 | 4.28 | MIC [21]: 108 µM (≈ 32 µg/mL); IC50 [22]: 60 µM; MIC [23]: 27 µM (≈ 8.01 µg/mL); MIC [24]: 108 µM (≈ 32 µg/mL); MIC [25]: 108 µM (≈ 32 µg/mL)

From ChEMBL document CHEMBL4152339, “Design and synthesis of novel 1H-tetrazol-5-amine based potent antimicrobial agents: DNA topoisomerase IV and gyrase affinity evaluation supported by molecular docking studies” (Eur J Med Chem, 2018)
